In patent EP3375430A1, “FRAGRANCE COMPOSITIONS” (Takasago International Corporation, priority 2017, dated 2018):

Test: Amount of fragrance ingredients retained on paper blotter after evaporation (ethanol extraction, GC-MS)
Assay type: physicochemical
Experimental: A fragrance (hereafter fragrance TAK, the formulation of which is shown in table 1) was formulated in a typical Eau de Toilette (EdT1) or in fragrance compositions according to the invention (compositions C1 to C4), as shown in table 2. The amount of individual fragrance ingredients retained on paper substrate (blotter) after set time periods was assessed by the following method.
100µL samples of either EdT1 or compositions C1 to C4 were applied to 4.5cm long standard paper blotters with a microsyringe. Three replicate blotters were prepared for each extraction time. After the appropriate evaporation time each of the 3 blotters was transferred to a 30mL glass bottle. 3mL of ethanol and 50µL of a 1% solution of methyl decanoate in ethanol as an internal standard were added. The bottle was sealed and placed on a roller bed to extract the blotter for 1 hour. A sample of the extracting solution was transferred to a vial which was sealed and analysed by gas chromatography (GC 6890) with a Mass Spectrometer detector (MS 5973) using the method described below. The results of the three replicate measurements were averaged. At exact times the same extraction was repeated on the remaining blotters which were stored on a warm surface at 32°C open to the air to allow evaporation. The gas chromatography conditions were as given below.
• Initial Temp: 50°C • Initial Time: 2 min • Rate: 10°C /min • Final Temp: 280°C • Final Time: 5 min • Run Time: 30 min
• Column: HP-5MS 30m * 0.25mm * 0.25µm • Gas: Helium • Constant Pressure 18.55 psi
• Split mode Ratio 40:1 • Inlet Temp: 250°C
• MS 5973 • Mass range: 35 to 350 • Threshold: 100 • Mass Quad: 150°C • Mass Source: 230°C
To simplify the results the average amount of each fragrance ingredient from the 3 samples measured at time zero was set at 100% and all other measurements were then related to that value so tables 3 to 6 show decreasing amounts of fragrance ingredients as a percentage of the initial amount.
The method of example 1 was repeated using a commercial fragrance (hereafter fragrance COM1, the formulation of which is given in table 7) formulated in a typical Eau de Toilette (EdT2) or in fragrance compositions according to the invention (compositions C5 and C6), as shown in table 8.

[1] = Table 9, fragrance COM1 in C5, T0 + 15 min
[2] = Table 9, fragrance COM1 in C5, T0 + 480 min
[3] = Table 9, fragrance COM1 in C5, T0 +1440 min
[4] = Table 9, fragrance COM1 in C6, T0 + 15 min
[5] = Table 9, fragrance COM1 in C6, T0 + 480 min
[6] = Table 9, fragrance COM1 in C6, T0 +1440 min
[7] = Table 9, fragrance COM1 in EdT2, C5 or C6, T0, set at 100% (normalisation)
[8] = Table 9, fragrance COM1 in EdT2, T0 + 15 min
[9] = Table 9, fragrance COM1 in EdT2, T0 + 480 min
[10] = Table 9, fragrance COM1 in EdT2, T0 +1440 min

With `CC(C=O)Cc1ccc(C(C)C)cc1` (centres unmarked) [Cyclamen aldehyde] the “amount of fragrance ingredient retained on blotter (percentage of the initial amount)” value (“amount … (percentage of the initial amount)” for short) [1] was 85.8%, the “amount … (percentage of the initial amount)” value [2] was 45.2% and the “amount … (percentage of the initial amount)” value [3] was 14.71%. For the same compound, the “amount … (percentage of the initial amount)” value [4] was 75.4%, the “amount … (percentage of the initial amount)” value [5] was 33.2% and the “amount … (percentage of the initial amount)” value [6] was 12.0%. The “amount … (percentage of the initial amount)” value [7] was 100%, the “amount … (percentage of the initial amount)” value [8] was 81.5% and the “amount … (percentage of the initial amount)” value [9] was 30.7%. The “amount … (percentage of the initial amount)” value [10] was 7.12%.
For Methyl ionone gamma, the “amount … (percentage of the initial amount)” value [1] was 84.0%, the “amount … (percentage of the initial amount)” value [2] was 32.8% and the “amount … (percentage of the initial amount)” value [3] was 5.68%. For the same compound, the “amount … (percentage of the initial amount)” value [4] was 74.2%, the “amount … (percentage of the initial amount)” value [5] was 23.3% and the “amount … (percentage of the initial amount)” value [6] was 5.2%. For the same compound, the “amount … (percentage of the initial amount)” value [7] was 100%, the “amount … (percentage of the initial amount)” value [8] was 79.2% and the “amount … (percentage of the initial amount)” value [9] was 16.4%. For the same compound, the “amount … (percentage of the initial amount)” value [10] was 3.77%.
In the case of `CC1(C)CCC[C@]2(C)[C@H]3CCO[C@]3(C)CC[C@@H]12` [Ambroxan™, (3aR,5aS,9aS,9bR)-3a,6,6,9a-tetramethyl-2,4,5,5a,7,8,9,9b-octahydro-1H-benzo[e][1]benzofuran], the “amount … (percentage of the initial amount)” value [1] is reported as 85.4%, the “amount … (percentage of the initial amount)” value [2] is reported as 68.9% and the “amount … (percentage of the initial amount)” value [3] is reported as 40.11%. For the same compound, the “amount … (percentage of the initial amount)” value [4] was 75.6%, the “amount … (percentage of the initial amount)” value [5] was 52.6% and the “amount … (percentage of the initial amount)” value [6] was 29.9%. For the same compound, the “amount … (percentage of the initial amount)” value [7] was 100%, the “amount … (percentage of the initial amount)” value [8] was 81.5% and the “amount … (percentage of the initial amount)” value [9] was 56.6%. For the same compound, the “amount … (percentage of the initial amount)” value [10] was 15.42%.
In the case of `O=C1CCCCCCCCCCCC(=O)OCCO1` [Ethylene Brassylate], the “amount … (percentage of the initial amount)” value (Table 3, fragrance TAK in C1, 15 min, 32°C) is reported as 81%, the “amount … (percentage of the initial amount)” value (Table 3, fragrance TAK in C1, 60 min, 32°C) is reported as 79% and the “amount … (percentage of the initial amount)” value (Table 3, fragrance TAK in C1, 120 min, 32°C) is reported as 81%. The “amount … (percentage of the initial amount)” value (Table 3, fragrance TAK in C1, 240 min, 32°C) was 86%, the “amount … (percentage of the initial amount)” value (Table 3, fragrance TAK in C1, 480 min, 32°C) was 79% and the “amount … (percentage of the initial amount)” value (Table 3, fragrance TAK in EdT1, 15 min, 32°C) was 88%. The “amount … (percentage of the initial amount)” value (Table 3, fragrance TAK in EdT1, 60 min, 32°C) was 85%, the “amount … (percentage of the initial amount)” value (Table 3, fragrance TAK in EdT1, 120 min, 32°C) was 90% and the “amount … (percentage of the initial amount)” value (Table 3, fragrance TAK in EdT1, 240 min, 32°C) was 98%. For the same compound, the “amount … (percentage of the initial amount)” value (Table 3, fragrance TAK in EdT1, 480 min, 32°C) was 100%, the “amount … (percentage of the initial amount)” value (Table 3, fragrance TAK in EdT1 or C1, T0, set at 100% (normalisation)) was 100% and the “amount … (percentage of the initial amount)” value (Table 4, fragrance TAK in C2, 15 min, 32°C) was 97%. The “amount … (percentage of the initial amount)” value (Table 4, fragrance TAK in C2, 480 min, 32°C) was 77%, the “amount … (percentage of the initial amount)” value (Table 4, fragrance TAK in EdT1, 15 min, 32°C) was 87% and the “amount … (percentage of the initial amount)” value (Table 4, fragrance TAK in EdT1, 480 min, 32°C) was 73%. For the same compound, the “amount … (percentage of the initial amount)” value (Table 4, fragrance TAK in EdT1 or C2, T0, set at 100% (normalisation)) was 100%, the “amount … (percentage of the initial amount)” value (Table 5, fragrance TAK in C3, 15 min, 32°C) was 80% and the “amount … (percentage of the initial amount)” value (Table 5, fragrance TAK in C3, 60 min, 32°C) was 93%. For the same compound, the “amount … (percentage of the initial amount)” value (Table 5, fragrance TAK in C3, 120 min, 32°C) was 93%, the “amount … (percentage of the initial amount)” value (Table 5, fragrance TAK in C3, 240 min, 32°C) was 100% and the “amount … (percentage of the initial amount)” value (Table 5, fragrance TAK in C3, 480 min, 32°C) was 82%. For the same compound, the “amount … (percentage of the initial amount)” value (Table 5, fragrance TAK in C3, 1440 min, 32°C) was 96%, the “amount … (percentage of the initial amount)” value (Table 5, fragrance TAK in EdT1, 15 min, 32°C) was 88% and the “amount … (percentage of the initial amount)” value (Table 5, fragrance TAK in EdT1, 60 min, 32°C) was 85%. The “amount … (percentage of the initial amount)” value (Table 5, fragrance TAK in EdT1, 120 min, 32°C) was 90%, the “amount … (percentage of the initial amount)” value (Table 5, fragrance TAK in EdT1, 240 min, 32°C) was 98% and the “amount … (percentage of the initial amount)” value (Table 5, fragrance TAK in EdT1, 480 min, 32°C) was 100%. For the same compound, the “amount … (percentage of the initial amount)” value (Table 5, fragrance TAK in EdT1, 1440 min, 32°C) was 85%, the “amount … (percentage of the initial amount)” value (Table 5, fragrance TAK in EdT1 or C3, T0, set at 100% (normalisation)) was 100% and the “amount … (percentage of the initial amount)” value (Table 6, fragrance TAK in C4, 15 min, 32°C) was 100%. For the same compound, the “amount … (percentage of the initial amount)” value (Table 6, fragrance TAK in C4, 60 min, 32°C) was 93%, the “amount … (percentage of the initial amount)” value (Table 6, fragrance TAK in C4, 120 min, 32°C) was 96% and the “amount … (percentage of the initial amount)” value (Table 6, fragrance TAK in C4, 240 min, 32°C) was 100%. For the same compound, the “amount … (percentage of the initial amount)” value (Table 6, fragrance TAK in C4, 480 min, 32°C) was 100%, the “amount … (percentage of the initial amount)” value (Table 6, fragrance TAK in EdT1, 15 min, 32°C) was 88% and the “amount … (percentage of the initial amount)” value (Table 6, fragrance TAK in EdT1, 60 min, 32°C) was 85%. For the same compound, the “amount … (percentage of the initial amount)” value (Table 6, fragrance TAK in EdT1, 120 min, 32°C) was 90%, the “amount … (percentage of the initial amount)” value (Table 6, fragrance TAK in EdT1, 240 min, 32°C) was 98% and the “amount … (percentage of the initial amount)” value (Table 6, fragrance TAK in EdT1, 480 min, 32°C) was 100%. The “amount … (percentage of the initial amount)” value (Table 6, fragrance TAK in EdT1 or C4, T0, set at 100% (normalisation)) was 100%.
In the case of `CC(C)(C)c1ccc(CCC=O)cc1` [Bourgeonal™, 3-(4-tert-butylphenyl)propanal], the “amount … (percentage of the initial amount)” value [1] is reported as 86%, the “amount … (percentage of the initial amount)” value [2] is reported as 59.8% and the “amount … (percentage of the initial amount)” value [3] is reported as 28.82%. The “amount … (percentage of the initial amount)” value [4] was 75.6%, the “amount … (percentage of the initial amount)” value [5] was 43.6% and the “amount … (percentage of the initial amount)” value [6] was 20.9%. The “amount … (percentage of the initial amount)” value [7] was 100%, the “amount … (percentage of the initial amount)” value [8] was 81.4% and the “amount … (percentage of the initial amount)” value [9] was 43.9%. The “amount … (percentage of the initial amount)” value [10] was 13.42%.
